Laboratory results: patent US20240174603A1 (Rappta Therapeutics Oy, priority 2021, published 2024)

Tested on: LNCaP cells
Assay: LNCaP cell viability assay (MTS)
Type: cell-based
Conditions: Homo sapiens, LNCaP, 48 h, LNCaP cell line
Method in brief: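 GI50 derived by nonlinear four-parameter curve fitting (bottom fixed at zero) of MTS viability data. Prostate LNCaP cells seeded at 5000/well were given compound doses from 1 to 80 µM one day after plating and assayed after 48 h of exposure.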

Row | SMILES | GI50
1 | CC1(C)CC1(CNS(=O)(=O)c1ccc(OC(F)(F)F)cc1)c1ccc(F)cc1F (stereo not shown) [Compound 84, N-((1-(2,4-difluorophenyl)-2,2-dimethylcyclopropyl)methyl)-4-(trifluoromethoxy)benzenesulfonamide] | 18 µM
2 | O=S(=O)(N[C@H](Cc1cc(F)c(F)cc1F)CC(F)(F)F)c1ccc(OC(F)(F)F)cc1 [Compound 85, (R)—N-(4,4,4-trifluoro-1-(2,4,5-trifluorophenyl)butan-2-yl)-4-(trifluoromethoxy)benzenesulfonamide] | 26 µM
3 | O=S(=O)(NC(c1ccc(Cl)cc1)C1CCCC1)c1ccc(OC(F)(F)F)cc1 (stereo not shown) [Compound 86, N-((4-chlorophenyl)(cyclopentyl)methyl)-4-(trifluoromethoxy)benzenesulfonamide] | 75 µM
4 | CC1CCN(c2ccccc2CNS(=O)(=O)c2ccc(OC(F)(F)F)cc2)CC1 [Compound 87, N-(2-(4-methylpiperidin-1-yl)benzyl)-4-(trifluoromethoxy)benzenesulfonamide] | 23 µM
5 | O=S(=O)(NCC1(c2cc(C(F)(F)F)ccc2Cl)CC1)c1ccc(OC(F)(F)F)cc1 [Compound 88, N-((1-(2-chloro-5-(trifluoromethyl)phenyl)cyclopropyl)methyl)-4-(trifluoromethoxy)benzenesulfonamide] | 25 µM
6 | O=S(=O)(NCCCOCCOCc1ccccc1)c1ccc(OC(F)(F)F)cc1 [Compound 89, N-(3-(2-(benzyloxy)ethoxy)propyl)-4-(trifluoromethoxy)benzenesulfonamide] | 48 µM
7 | CCn1nc(C(F)(F)F)cc1COCCNS(=O)(=O)c1ccc(OC(F)(F)F)cc1 [Compound 90, N-(2-((1-ethyl-3-(trifluoromethyl)-1H-pyrazol-5-yl)methoxy)ethyl)-4-(trifluoromethoxy)benzenesulfonamide] | 28 µM
8 | O=S(=O)(NCC1CN(Cc2ccccc2)CC12CCC2)c1ccc(OC(F)(F)F)cc1 (stereo not shown) [Compound 91, N-((6-benzyl-6-azaspiro[3.4]octan-8-yl)methyl)-4-(trifluoromethoxy)benzenesulfonamide] | 28 µM
9 | COC(=O)C(NS(=O)(=O)c1ccc(OC(F)(F)F)cc1)c1ccccc1Br (stereo not shown) [Compound 92, Methyl 2-(2-bromophenyl)-2-((4-(trifluoromethoxy)phenyl)sulfonamido)acetate] | 42 µM
10 | CC(CC1CCCCN1C)NS(=O)(=O)c1ccc(OC(F)(F)F)cc1 (stereo not shown) [Compound 93, N-(1-(1-methylpiperidin-2-yl)propan-2-yl)-4-(trifluoromethoxy)benzenesulfonamide] | 34 µM
11 | CCOC(=O)CC(NS(=O)(=O)c1ccc(OC(F)(F)F)cc1)c1cccc(C(F)(F)F)c1 (stereo not shown) [Compound 94, Ethyl 3-((4-(trifluoromethoxy)phenyl)sulfonamido)-3-(3-(trifluoromethyl)phenyl)propanoate] | 25 µM
12 | CC1CCCCC1OCCNS(=O)(=O)c1ccc(OC(F)(F)F)cc1 (stereo not shown) [Compound 95, N-(2-((2-methylcyclohexyl)oxy)ethyl)-4-(trifluoromethoxy)benzenesulfonamide] | 15 µM
13 | O=S(=O)(NCCNS(=O)(=O)c1ccc(F)c(Cl)c1)c1ccc(OC(F)(F)F)cc1 [Compound 96, 3-chloro-4-fluoro-N-(2-((4-(trifluoromethoxy)phenyl)sulfonamido)ethyl)benzenesulfonamide] | 31 µM
14 | O=S(=O)(NCCNS(=O)(=O)c1ccc(Cl)cc1F)c1ccc(OC(F)(F)F)cc1 [Compound 97, 4-chloro-2-fluoro-N-(2-((4-(trifluoromethoxy)phenyl)sulfonamido)ethyl)benzenesulfonamide] | 41 µM
15 | CN(C)CC1(CNS(=O)(=O)c2ccc(OC(F)(F)F)cc2)CC1 [Compound 98, N-((1-((dimethylamino)methyl)cyclopropyl)methyl)-4-(trifluoromethoxy)benzenesulfonamide] | 29 µM
16 | CC1CCCC(CNS(=O)(=O)c2ccc(OC(F)(F)F)cc2)(N(C)C)C1 (stereo not shown) [Compound 99, N-((1-(dimethylamino)-3-methylcyclohexyl)methyl)-4-(trifluoromethoxy)benzenesulfonamide] | 45 µM
17 | O=S(=O)(NCCN1c2ccccc2NS1(=O)=O)c1ccc(OC(F)(F)F)cc1 [Compound 100, N-(2-(2,2-dioxidobenzo[c] [1,2,5]thiadiazol-1(3H)-yl)ethyl)-4-(trifluoromethoxy)benzenesulfonamide] | 61 µM
18 | O=S(=O)(NC(c1ccc(F)cc1)C1CCCO1)c1ccc(OC(F)(F)F)cc1 (stereo not shown) [Compound 101, N-((4-fluorophenyl)(tetrahydrofuran-2-yl)methyl)-4-(trifluoromethoxy)benzenesulfonamide] | 33 µM
19 | Cc1ccccc1C(NS(=O)(=O)c1ccc(OC(F)(F)F)cc1)C1CCCC(C)C1 (stereo not shown) [Compound 102, N-((3-methylcyclohexyl)(o-tolyl)methyl)-4-(trifluoromethoxy)benzenesulfonamide] | 14 µM
20 | CC1CC1C(NS(=O)(=O)c1ccc(OC(F)(F)F)cc1)c1ccccc1 (stereo not shown) [Compound 103, N-((2-methylcyclopropyl)(phenyl)methyl)-4-(trifluoromethoxy)benzenesulfonamide] | 20 µM

Row | SMILES | GI50
21 | Cc1ccc(C(NS(=O)(=O)c2ccc(OC(F)(F)F)cc2)C(C)S(C)(=O)=O)cc1 (stereo not shown) [Compound 104, N-(2-(methylsulfonyl)-1-(p-tolyl)propyl)-4-(trifluoromethoxy)benzenesulfonamide] | 49 µM
22 | CC(NS(=O)(=O)c1ccc(OC(F)(F)F)cc1)C(NC(=O)OC(C)(C)C)c1ccccc1 (stereo not shown) [Compound 105, Tert-butyl (1-phenyl-2-((4-(trifluoromethoxy)phenyl)sulfonamido)propyl)carbamate] | 37 µM
23 | CCC(NS(=O)(=O)c1ccc(OC(F)(F)F)cc1)(C(=O)OC)c1ccccc1 (stereo not shown) [Compound 107, Methyl 2-phenyl-2-((4-(trifluoromethoxy)phenyl)sulfonamido)butanoate] | 69 µM
24 | O=[N+]([O-])c1ccc(S(=O)(=O)NCCNS(=O)(=O)c2ccc(OC(F)(F)F)cc2)cc1 [Compound 108, 4-nitro-N-(2-((4-(trifluoromethoxy)phenyl)sulfonamido)ethyl)benzenesulfonamide] | 65 µM
25 | CC(C)CC(NS(=O)(=O)c1ccc(OC(F)(F)F)cc1)C(=O)Nc1nccs1 (stereo not shown) [Compound 109, 4-methyl-N-(thiazol-2-yl)-2-((4-(trifluoromethoxy)phenyl)sulfonamido)pentanamide] | 25 µM
26 | CCOC(=O)C(CC1CCOC1)NS(=O)(=O)c1ccc(OC(F)(F)F)cc1 (stereo not shown) [Compound 110, Ethyl 3-(tetrahydrofuran-3-yl)-2-((4-(trifluoromethoxy)phenyl)sulfonamido)propanoate] | 61 µM
27 | COC(=O)C(Cc1ccccc1O)NS(=O)(=O)c1ccc(OC(F)(F)F)cc1 (stereo not shown) [Compound 111, Methyl 3-(2-hydroxyphenyl)-2-((4-(trifluoromethoxy)phenyl)sulfonamido)propanoate] | 50 µM
28 | COC(=O)C(Cc1ccc(O)c(F)c1)NS(=O)(=O)c1ccc(OC(F)(F)F)cc1 (stereo not shown) [Compound 112, Methyl 3-(3-fluoro-4-hydroxyphenyl)-2-((4-(trifluoromethoxy)phenyl)sulfonamido)propanoate] | 38 µM
29 | CC(C)c1ccc(C(CC(=O)O)NS(=O)(=O)c2ccc(OC(F)(F)F)cc2)cc1 (stereo not shown) [Compound 113, 3-(4-isopropylphenyl)-3-((4-(trifluoromethoxy)phenyl)sulfonamido)propanoic acid] | 66 µM
30 | CC(C)(C)OC(=O)NC[C@H](NS(=O)(=O)c1ccc(OC(F)(F)F)cc1)c1ccccc1 [Compound 114, tert-butyl (R)-(2-phenyl-2-((4-(trifluoromethoxy)phenyl)sulfonamido)ethyl)carbamate] | 42.5 µM
31 | CC(C)(C)OC(=O)NC[C@@H](NS(=O)(=O)c1ccc(OC(F)(F)F)cc1)c1ccccc1 [Compound 115, tert-butyl (S)-(2-phenyl-2-((4-(trifluoromethoxy)phenyl)sulfonamido)ethyl)carbamate] | 51.6 µM
32 | NC[C@H](NS(=O)(=O)c1ccc(OC(F)(F)F)cc1)c1ccccc1 [Compound 116, (R)—N-(2-amino-1-phenylethyl)-4-(trifluoromethoxy)benzenesulfonamide] | 51.2 µM
33 | NC[C@@H](NS(=O)(=O)c1ccc(OC(F)(F)F)cc1)c1ccccc1 [Compound 117, (S)—N-(2-amino-1-phenylethyl)-4-(trifluoromethoxy)benzenesulfonamide] | 55 µM
34 | CCCOC1CCN(CC(NS(=O)(=O)c2ccc(OC(F)(F)F)cc2)c2ccccc2)CC1 (stereo not shown) [Compound 118, N-(1-phenyl-2-(4-propoxypiperidin-1-yl)ethyl)-4-(trifluoromethoxy)benzenesulfonamide] | 42.4 µM
35 | Cc1cccc(C(CN(C)C)NS(=O)(=O)c2ccc(OC(F)(F)F)cc2)c1 (stereo not shown) [Compound 119, N-(2-(dimethylamino)-1-(m-tolyl)ethyl)-4-(trifluoromethoxy)benzenesulfonamide] | 48.5 µM
36 | CN(C)CC(NS(=O)(=O)c1ccc(OC(F)(F)F)cc1)c1cccc(C(F)(F)F)c1 (stereo not shown) [Compound 120, N-(2-(dimethylamino)-1-(3-(trifluoromethyl)phenyl)ethyl)-4-(trifluoromethoxy)benzenesulfonamide] | 46.3 µM
37 | O=S(=O)(N[C@@H](CO)c1ccc(Cl)c(Cl)c1)c1ccc(OC(F)(F)F)cc1 [Compound 121, (R)—N-(1-(3,4-dichlorophenyl)-2-hydroxyethyl)-4-(trifluoromethoxy)benzenesulfonamide] | 40.2 µM
38 | O=S(=O)(N[C@H](CO)c1ccc(Cl)c(Cl)c1)c1ccc(OC(F)(F)F)cc1 [Compound 122, (S)—N-(1-(3,4-dichlorophenyl)-2-hydroxyethyl)-4-(trifluoromethoxy)benzenesulfonamide] | 43.4 µM
39 | Cc1ccc(C(CN(C)C)NS(=O)(=O)c2ccc(OC(F)(F)F)cc2)cc1 (stereo not shown) [Compound 123, N-(2-(dimethylamino)-1-(p-tolyl)ethyl)-4-(trifluoromethoxy)benzenesulfonamide] | 45.2 µM
40 | Cn1ccc(S(=O)(=O)NCC(NS(=O)(=O)c2ccc(OC(F)(F)F)cc2)c2ccccc2)c1 (stereo not shown) [Compound 124, 1-methyl-N-(2-phenyl-2-((4-(trifluoromethoxy)phenyl)sulfonamido)ethyl)-1H-pyrrole-3-sulfonamide] | 49.7 µM
